US9381176B2, “E-prostanoid receptor, Ptger3, as a novel anti-diabetic therapeutic target” (Wisconsin Alumni Research Foundation, priority 2012, dated 2016)
Entries after “also recorded” stand apart in the source; their conditions may differ. No end group written: not given here.

Key:
Ins-1 832/3 cells = test: INS1 cell insulin secretion assay; type: cell-based, rat; settings: for minimum dose yielding maximum effect on GSIS inhibition: 2 hour stimulation
Method: INS1 Cell Culture and Insulin Secretion Assays. The glucose responsive rat beta cell line, INS1 (832/3) was cultured in RPMI 1640 (11.1 mM glucose) supplemented with NaHCO3, HEPES, heat-inactivated FBS, L-glutamine, sodium pyruvate and β-mercaptoethanol. 3 days prior to assay, 1×10^5 cells were plated per well in 96-well cell culture plates. Twenty-four hours prior to the assay, the medium was aspirated and fresh growth medium added. On the day of the assay, confluent Ins-1 832/3 cells were washed once with sterile PBS and pre-incubated for 2 hours in KRBB supplemented with 25 mM HEPES and containing 1.7 mM glucose and 0.2% BSA. Cells were then stimulated for 2 hours with KRBB containing 16.7 mM glucose and the desired concentrations of agonists/antagonists. Secretion buffer was collected and the secreted and cellular insulin content determined by acid/ethanol extraction, as described above.
Insulin secretion assays in Ins-1 832/3 cells were performed wherein the dose of PGE2 (a physiological agonist of EP3) or sulprostone (an EP3-selective agonist) were varied over a wide concentration range. […] The minimum dose of sulprostone yielding maximum effect on GSIS inhibition was approximately 10 nM and the minimum dose of PGE2 was approximately 50 nM.

[1] = test system: islets isolated from 10-week-old BTBR lean and Ob mice; test: Mouse islet glucose-stimulated insulin secretion (GSIS) assay; type: cell-based; settings: for effect on GSIS from islets obtained from diabetic BTBR mice: diabetic (ob/ob) BTBR islets; for effect on GSIS from islets obtained from diabetic BTBR mice / effect on GSIS from islets obtained from non-diabetic mice: 16.7 mM glucose, PGE1 5 μM or L-798,106 20 μM, 1 hour static incubation; for effect on GSIS from islets obtained from non-diabetic mice: non-diabetic (lean) BTBR islets
Method: Mouse Islet Isolation & Culture. Intact pancreatic islets were isolated from 10-12-week-old BTBR lean and ob/ob mice using a known collagenase digestion protocol (Rabaglia et al., Am. J. Physiology Endo. Metab. 289:E218-224 (2005)). Instead of CO2 asphyxiation and decapitation, mice were Avertin-anesthetized and exsanguinated immediately prior to cannulation of the bile duct and inflation of the pancreas with a collagenase solution. Islets were cultured overnight in 5 ml RPMI 1640 containing 11.1 mM glucose and 10% heat-inactivated FBS with 1X penicillin/streptomycin prior to in vitro assay for insulin secretion and PGE2 production.
Mouse Islet Insulin Secretion and PGE2 Production Assays. Insulin secretion assays were performed in mesh-bottomed glass tubes essentially as in Rabaglia et al. (2005). Modifications include: 4 islets/replicate were picked into Krebs Ringer Bicarbonate Buffer (KRBB) containing 1.7 mM glucose and 0.25% BSA. Replicates were pre-incubated for 1 hour in fresh 1.7 mM KRBB before being transferred to stimulation medium containing the desired concentrations of glucose and drug treatment (e.g., PGE1, PGE2, and sulprostone [Sigma Aldrich] or L-798,106 [Tocris]). Insulin secretion as a percentage of total insulin content was determined using an in-house insulin ELISA, as described above.
As a first step in testing their hypothesis that the EP3 signaling pathway contributes to the pathophysiology of T2D, the Inventors subjected islets isolated from 10-week-old BTBR lean and Ob mice to treatment with a selective agonist (PGE1) or specific antagonist (L-798,106) of the EP3 receptor to monitor the impact on GSIS. Briefly, mouse islets were incubated in medium containing 1.7 mM glucose (non-stimulatory towards insulin secretion) or 16.7 mM glucose (stimulatory towards insulin secretion), with and without the addition of 5 μM PGE1 or 20 μM L-798,106.
GLP-1-based therapies are used in T2D therapy. To test the possibility that EP3 antagonism can augment the effect of GLP-1 agonism, islets from diabetic BTBR mice were treated with stimulatory glucose, with and without the addition of 50 nM GLP-1 and/or 10 μM […], and the level of insulin secretion monitored (FIG. 9).

[2] = diabetic patients treated with sitagliptin; cited from earlier work
[3] = test system: human islets from non-diabetic or T2D cadaveric donors; test: Human islet insulin secretion assay; type: cell-based
Method: Human Islet Culture and Insulin Secretion Assays. Human islets were obtained through the Integrated Islet Distribution Program. On the day of arrival, islets were cultured overnight in RPMI containing 8 mM glucose, 10% heat-inactivated FBS, and 1X penicillin/streptomycin to confirm viability and sterility. Islets were cultured in 6 cm Petri dishes with approximately 1000 islet equivalents plated per dish. Islets were hand-picked and incubated an additional day in medium containing the desired concentration of glucose and/or xylitol before assaying for insulin secretion. Insulin secretion assays on human islets were performed identically to those described for mouse islets, except that 10 islets were used per replicate instead of 4.
Non-diabetic and T2D human islets were cultured for 48 hours in 8 mM glucose. A subset of the non-diabetic donor islets were also incubated with 0.5 mM xylitol, a glucose analog that is non-metabolizable beyond glucose-6 phosphate, during the final 24 hour culture period. […] Xylitol activates the FoxO1 transcription factor via glucose-6 phosphate formation, providing an alternative mechanism for up-regulating gene expression. Following 48 hours in culture, cellular insulin secretion was stimulated for 45 minutes with 16.7 mM glucose in the absence and presence of 10 μM L-798,106. Secreted insulin was normalized to total insulin content in order to determine the fractional release of insulin. Data from each human islet set was normalized to its own response in 16.7 mM glucose alone to isolate the effect of L-798,106 on GSIS (FIG. 6).

CCCCC[C@H](O)/C=C/[C@H]1[C@H](O)CC(=O)[C@@H]1C/C=C\CCCC(=O)O [PGE2]
IC50 (Ins-1 832/3 cells; 16.7 mM glucose, 2 hour static incubation, read-out: approximate IC50 for suppression of insulin secretion): ~10 nM | minimum dose yielding maximum effect on GSIS inhibition (Ins-1 832/3 cells; 16.7 mM glucose): approximately 50 nM | maximal reduction in insulin secretion (Ins-1 832/3 cells; 16.7 mM glucose, increasing concentrations, 2 hour static incubation): ~80% | inhibition of GSIS (dose dependence) (Ins-1 832/3 cells; 16.7 mM glucose, wide concentration range): dose-dependently suppresses insulin secretion; also recorded: dose-dependently inhibited GSIS

CS(=O)(=O)NC(=O)CCC/C=C\C[C@H]1C(=O)C[C@@H](O)[C@@H]1/C=C/[C@@H](O)COc1ccccc1 [sulprostone]
minimum dose yielding maximum effect on GSIS inhibition (Ins-1 832/3 cells; 16.7 mM glucose): approximately 10 nM

CCCCC[C@H](O)/C=C/[C@H]1[C@H](O)CC(=O)[C@@H]1CCCCCCC(=O)O [PGE1]
effect on GSIS from islets obtained from diabetic BTBR mice [1]: significantly altered insulin secretion; also recorded: reduced GSIS | effect on GSIS from islets obtained from non-diabetic mice [1]: had no effect

glucagon-like peptide 1 (HAEGTFTSDVSSYLEGQAAKEFIAWLVKGR; ends and bridges not checked; UniProt P01275 98-127, looked up) [GLP-1, hormone glucagon-like peptide 1]
effect of GLP-1 alone on insulin secretion from diabetic BTBR islets ([1]; diabetic BTBR islets, 11.1 mM glucose, GLP-1 50 nM): significant impact on insulin secretion

N[C@@H](CC(=O)N1CCn2c(nnc2C(F)(F)F)C1)Cc1cc(F)c(F)cc1F [sitagliptin]
diabetic patients who fail to achieve HbAlc target of <7% [2]: 35-60%

COc1ccc(Br)cc1S(=O)(=O)NC(=O)/C=C/c1ccccc1Cc1ccc2ccccc2c1 [L-798,106, (2E)-N-[(5-bromo-2-methoxyphenyl)sulfonyl]-3-[2-(2-naphthalenylmethyl)phenyl]-2-propenamide]
effect on insulin secretion from diabetic (T2D) human islets ([3]; T2D donor islets, 16.7 mM glucose, L-798,106 20 μM / 10 μM, 45 minute static incubation): can enhance insulin secretion; also recorded: differed significantly from responses of non-diabetic islets | effect on insulin secretion from non-diabetic human islets ([3]; non-diabetic donors 5-7, cultured in 8 mM glucose, 16.7 mM glucose stimulation, 45 minute static incubation): non-responsive | effect on insulin secretion from xylitol-incubated non-diabetic human islets ([3]; non-diabetic donors 5-7 incubated overnight in 8 mM glucose with 0.5 mM xylitol, 16.7 mM glucose stimulation, 45 minutes): effective to promote glucose dependent insulin secretion; also recorded: differed significantly from responses of non-diabetic islets | effect on GSIS from islets obtained from diabetic BTBR mice [1]: significantly altered insulin secretion; also recorded: enhanced GSIS | effect on GLP-1 dependent insulin secretion from diabetic BTBR islets ([1]; diabetic BTBR-ob/ob islets, 11.1 mM glucose, GLP-1 50 nM plus L-798,106 10 μM): augments GLP-1 dependent insulin secretion | effect on GSIS from islets obtained from non-diabetic mice [1]: had no effect on GSIS | EC50 (Ins-1 832/3 cells; Rattus norvegicus, INS1, in the presence of 50 nM PGE2 (maximal inhibitory concentration), 16.7 mM glucose, 2 hour static incubation, read-out: approximate EC50 for restoring insulin secretion): ~100 nM | reversal of sulprostone-dependent suppression of GSIS (Ins-1 832/3 cells; in the presence of 10 nM sulprostone, stimulatory glucose, dose response of L-798,106): reversed in a dose-dependent manner | reversal of PGE2-dependent suppression of insulin secretion (Ins-1 832/3 cells; in the presence of 50 nM PGE2, increasing concentrations of L-798,106, 16.7 mM glucose): restored maximal insulin secretion; also recorded: reversed in a dose-dependent manner
